Measurements published in patent US9040545B2, “Heterocyclyl pyrazolopyrimidine analogues as selective JAK inhibitors” (Cellzome Limited, priority 2010, dated 2015).

biological target: T1, JAK3 (Homo sapiens, UniProt P52333); assay: Kinobeads assay, JAK3; assay type: binding; conditions: mixed Molt4/Ramos lysate, read-out: Inhibition values (IC50) JAK3
T1 construct: endogenous in cells; host or cells: mixed Molt4/Ramos lysate (1:2)
T1 sequence (P52333 1-1124): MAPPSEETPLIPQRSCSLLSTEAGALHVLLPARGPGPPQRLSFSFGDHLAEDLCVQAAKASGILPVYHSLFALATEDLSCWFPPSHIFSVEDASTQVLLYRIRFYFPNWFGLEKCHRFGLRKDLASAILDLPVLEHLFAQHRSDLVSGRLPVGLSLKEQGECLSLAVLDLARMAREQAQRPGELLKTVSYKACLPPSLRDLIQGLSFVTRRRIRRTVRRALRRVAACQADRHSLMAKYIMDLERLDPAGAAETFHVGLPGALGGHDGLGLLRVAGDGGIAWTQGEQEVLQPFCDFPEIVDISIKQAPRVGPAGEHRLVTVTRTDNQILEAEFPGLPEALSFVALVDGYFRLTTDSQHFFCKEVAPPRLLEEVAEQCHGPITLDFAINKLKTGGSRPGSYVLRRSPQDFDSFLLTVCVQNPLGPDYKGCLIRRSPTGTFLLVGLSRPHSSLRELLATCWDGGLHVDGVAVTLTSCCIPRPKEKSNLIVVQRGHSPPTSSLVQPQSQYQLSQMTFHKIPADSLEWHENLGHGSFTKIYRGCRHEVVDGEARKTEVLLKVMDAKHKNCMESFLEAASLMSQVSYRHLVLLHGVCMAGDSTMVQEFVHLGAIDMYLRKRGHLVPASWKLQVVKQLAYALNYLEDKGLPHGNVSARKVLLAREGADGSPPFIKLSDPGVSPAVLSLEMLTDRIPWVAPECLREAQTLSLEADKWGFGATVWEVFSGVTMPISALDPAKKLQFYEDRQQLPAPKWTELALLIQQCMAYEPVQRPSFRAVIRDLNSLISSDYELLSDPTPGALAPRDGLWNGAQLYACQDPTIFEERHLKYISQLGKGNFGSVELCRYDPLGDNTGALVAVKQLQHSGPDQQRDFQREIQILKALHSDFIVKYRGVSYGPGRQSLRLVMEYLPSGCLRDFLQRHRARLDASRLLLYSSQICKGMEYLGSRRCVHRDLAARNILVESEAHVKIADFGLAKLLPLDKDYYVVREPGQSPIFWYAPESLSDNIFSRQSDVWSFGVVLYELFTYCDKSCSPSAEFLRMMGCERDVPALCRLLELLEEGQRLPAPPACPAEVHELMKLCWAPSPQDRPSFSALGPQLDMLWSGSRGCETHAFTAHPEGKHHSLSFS
Experimental: The compounds of the present invention as described in the previous examples were tested in a Kinobeads™ assay as described for ZAP-70 (WO-A 2007/137867). Briefly, test compounds (at various concentrations) and the affinity matrix with the immobilized aminopyrido-pyrimidine ligand 24 were added to cell lysate aliquots and allowed to bind to the proteins in the lysate sample. After the incubation time the beads with captured proteins were separated from the lysate. Bound proteins were then eluted and the presence of JAK2 and JAK3 was detected and quantified using specific antibodies in a dot blot procedure and the Odyssey infrared detection system. Dose response curves for individual kinases were generated and IC50 values calculated. Kinobeads™ assays for ZAP-70 (WO-A 2007/137867) and for kinase selectivity profiling (WO-A 2006/134056) have been previously described.
The affinity matrix was washed two times with 15 mL of 1×DP buffer containing 0.2% NP40 (IGEPAL® CA-630, Sigma, #I3021) and then resuspended in 1×DP buffer containing 0.2% NP40 (3% beads slurry).
5×DP buffer 250 mM Tris-HCl pH 7.4, 25% Glycerol, 7.5 mM MgCl2, 750 mM NaCl, 5 mM Na3VO4; filter the 5×DP buffer through a 0.22 μm filter and store in aliquots at −80° C. The 5×DP buffer is diluted with H2O to 1×DP buffer containing 1 mM DTT and 25 mM NaF.
Stock solutions of test compounds were prepared in DMSO. In a 96 well plate 30 μL solution of diluted test compounds at 5 mM in DMSO were prepared. Starting with this solution a 1:3 dilution series (9 steps) was prepared. For control experiments (no test compound) a buffer containing 2% DMSO was used.
Molt4 cells (ATCC catalogue number CRL-1582) and Ramos cells (ATCC catalogue number CRL-1596) were grown in 1 L Spinner flasks (Integra Biosciences, #182101) in suspension in RPMI 1640 medium (Invitrogen, #21875-034) supplemented with 10% Fetal Bovine Serum (Invitrogen) at a density between 0.15×106 and 1.2×10^6 cells/mL. Cells were harvested by centrifugation, washed once with 1×PBS buffer (Invitrogen, #14190-094) and cell pellets were frozen in liquid nitrogen and subsequently stored at −80° C. Cells were homogenized in a Potter S homogenizer in lysis buffer: 50 mM Tris-HCl, 0.8% NP40, 5% glycerol, 150 mM NaCl, 1.5 mM MgCl2, 25 mM NaF, 1 mM sodium vanadate, 1 mM DTT, pH 7.5. One complete EDTA-free tablet (protease inhibitor cocktail, Roche Diagnostics, 1873580) per 25 mL buffer was added. The material was dounced 10 times using a mechanized POTTER S, transferred to 50 mL falcon tubes, incubated for 30 minutes on ice and spun down for 10 minutes at 20,000 g at 4° C. (10,000 rpm in Sorvall SLA600, precooled). The supernatant was transferred to an ultracentrifuge (UZ)-polycarbonate tube (Beckmann, 355654) and spun for 1 hour at 100,000 g at 4° C. (33.500 rpm in Ti50.2, precooled). The supernatant was transferred again to a fresh 50 mL falcon tube, the protein concentration was determined by a Bradford assay (BioRad) and samples containing 50 mg of protein per aliquot were prepared. The samples were immediately used for experiments or frozen in liquid nitrogen and stored frozen at −80° C.
Cell lysate (approximately 50 mg protein per plate) was thawed in a water bath at room temperature and then stored on ice. To the thawed cell lysate 1×DP 0.8% NP40 buffer containing protease inhibitors (1 tablet for 25 mL buffer; EDTA-free protease inhibitor cocktail; Roche Diagnostics 1873580) was added in order to reach a final protein concentration of 10 mg/mL total protein. The diluted cell lysate was stored on ice. Mixed Molt4/Ramos lysate was prepared by combining one volume of Molt4 lysate and two volumes of Ramos lysate (ratio 1:2).
To a 96 well filter plate (Multiscreen HTS, BV Filter Plates, Millipore #MSBVN1250) were added per well: 100 μL affinity matrix (3% beads slurry), 3 μL of compound solution, and 50 μL of diluted lysate. […]

Compound | IC50
OCCn1cc(Nc2ncc3cnn(Cc4cccc(N5CCOCC5)c4F)c3n2)cn1 [Example 39, 2-(4-((1-(2-Fluoro-3-morpholinobenzyl)-1H-pyrazolo[3,4-d]pyrimidin-6-yl)amino)-1H-pyrazol-1-yl)ethanol] | < 100 nM
CN(C)CC1(Cn2cc(Nc3ncc4cnn(Cc5cccc(N6CCOCC6)c5)c4n3)cn2)COC1 [Example 31, N-(1-((3-((Dimethylamino)methyl)oxetan-3-yl)methyl)-1H-pyrazol-4-yl)-1-(3-morpholinobenzyl)-1H-pyrazolo[3,4-d]pyrimidin-6-amine] | < 100 nM
Cn1cc(-c2cccc(Cn3ncc4cnc(Nc5cnn(CCO)c5)nc43)c2F)cn1 [Example 124, 2-(4-((1-(2-fluoro-3-(1-methyl-1H-pyrazol-4-yl)benzyl)-1H-pyrazolo[3,4-d]pyrimidin-6-yl)amino)-1H-pyrazol-1-yl)ethanol] | < 100 nM
Cn1cc(Nc2ncc3cnn(Cc4cccc(-c5cnn(C)c5)c4F)c3n2)cn1 [Example 123, 1-(2-fluoro-3-(1-methyl-1H-pyrazol-4-yl)benzyl)-N-(1-methyl-1H-pyrazol-4-yl)-1H-pyrazolo[3,4-d]pyrimidin-6-amine] | < 100 nM
Cn1cc(Nc2ncc3cnn(Cc4cccc(N5CCC(=O)CC5)c4)c3n2)cn1 [Example 108, 1-(3-((6-((1-methyl-1H-pyrazol-4-yl)amino)-1H-pyrazolo[3,4-d]pyrimidin-1-yl)methyl)phenyl)piperidin-4-one] | < 100 nM
O=C(Cn1cc(Nc2ncc3cnn(Cc4cc(F)cc(N5CCOCC5=O)c4)c3n2)cn1)N1CCNCC1 [Example 109, 4-(3-fluoro-5-((6-((1-(2-oxo-2-(piperazin-1-yl)ethyl)-1H-pyrazol-4-yl)amino)-1H-pyrazolo[3,4-d]pyrimidin-1-yl)methyl)phenyl)morpholin-3-one] | < 100 nM
O=C1COCCN1c1cc(F)cc(Cn2ncc3cnc(Nc4cnn(CC5CCNC5)c4)nc32)c1 (stereo not shown) [Example 101, 4-(3-fluoro-5-((6-((1-(pyrrolidin-3-ylmethyl)-1H-pyrazol-4-yl)amino)-1H-pyrazolo[3,4-d]pyrimidin-1-yl)methyl)phenyl)morpholin-3-one] | < 100 nM
OCCn1cc(Nc2ncc3cnn(Cc4cc(F)cc(N5CCNCC5)c4)c3n2)cn1 [Example 93, 2-(4-((1-(3-fluoro-5-(piperazin-1-yl)benzyl)-1H-pyrazolo[3,4-d]pyrimidin-6-yl)amino)-1H-pyrazol-1-yl)ethanol] | < 100 nM
Cn1cc(Nc2ncc3cnn(Cc4cccc(N5CCOCC5)c4)c3n2)cn1 [Example 2, N-(1-Methyl-1H-pyrazol-4-yl)-1-(3-morpholinobenzyl)-1H-pyrazolo[3,4-d]pyrimidin-6-amine] | < 100 nM

Further lines, results first:

IC50 | Compound
< 100 nM | OCCn1cc(Nc2ncc3cnn(Cc4cccc(N5CCOCC5)c4)c3n2)cn1 [Example 5, 2-(4-((1-(3-Morpholinobenzyl)-1H-pyrazolo[3,4-d]pyrimidin-6-yl)amino)-1H-pyrazol-1-yl)ethanol]
< 100 nM | Cn1cc(-c2cccc(Cn3ncc4cnc(Nc5cnn(CCO)c5)nc43)c2)cn1 [Example 122, 2-(4-((1-(3-(1-methyl-1H-pyrazol-4-yl)benzyl)-1H-pyrazolo[3,4-d]pyrimidin-6-yl)amino)-1H-pyrazol-1-yl)ethanol]
< 100 nM | Cn1cc(Nc2ncc3cnn(Cc4cccc(-c5cnn(CC(N)=O)c5)c4)c3n2)cn1 [Example 120, 2-(4-(3-((6-((1-methyl-1H-pyrazol-4-yl)amino)-1H-pyrazolo[3,4-d]pyrimidin-1-yl)methyl)phenyl)-1H-pyrazol-1-yl)acetamide]
< 100 nM | Cn1cc(Nc2ncc3cnn(Cc4cccc(-c5cnn(C)c5)c4)c3n2)cn1 [Example 115, N-(1-methyl-1H-pyrazol-4-yl)-1-(3-(1-methyl-1H-pyrazol-4-yl)benzyl)-1H-pyrazolo[3,4-d]pyrimidin-6-amine]
< 100 nM | Cn1cc(Nc2ncc3cnn(Cc4cccc(N5CCOCC5=O)c4F)c3n2)cn1 [Example 40, 4-(2-Fluoro-3-((6-((1-methyl-1H-pyrazol-4-yl)amino)-1H-pyrazolo[3,4-d]pyrimidin-1-yl)methyl)phenyl)morpholin-3-one]
< 100 nM | Cn1cc(Nc2ncc3cnn(Cc4cc(F)cc(N5CCNCC5)c4)c3n2)cn1 [Example 92, 1-(3-fluoro-5-(piperazin-1-yl)benzyl)-N-(1-methyl-1H-pyrazol-4-yl)-1H-pyrazolo[3,4-d]pyrimidin-6-amine]
< 100 nM | CN(C)CCCn1cc(Nc2ncc3cnn(Cc4cccc(N5CCOCC5=O)c4)c3n2)cn1 [Example 28, 4-(3-((6-((1-(3-(Dimethylamino)propyl)-1H-pyrazol-4-yl)amino)-1H-pyrazolo[3,4-d]pyrimidin-1-yl)methyl)phenyl)morpholin-3-one]
< 100 nM | Cn1cc(Nc2ncc3cnn(Cc4cccc(N5CCOCC5)c4F)c3n2)cn1 [Example 21, 1-(2-Fluoro-3-morpholinobenzyl)-N-(1-methyl-1H-pyrazol-4-yl)-1H-pyrazolo[3,4-d]pyrimidin-6-amine]
< 100 nM | C[C@H]1COCCN1c1cccc(Cn2ncc3cnc(Nc4cnn(C)c4)nc32)c1 [Example 112, (S)-N-(1-methyl-1H-pyrazol-4-yl)-1-(3-(3-methylmorpholino)benzyl)-1H-pyrazolo[3,4-d]pyrimidin-6-amine]
< 100 nM | O=C1CC(Cn2cc(Nc3ncc4cnn(Cc5cc(F)cc(N6CCOCC6=O)c5)c4n3)cn2)CN1 (stereo not shown) [Example 105, 4-(3-fluoro-5-((6-((1-((5-oxopyrrolidin-3-yl)methyl)-1H-pyrazol-4-yl)amino)-1H-pyrazolo[3,4-d]pyrimidin-1-yl)methyl)phenyl)morpholin-3-one]
